Reference: patent US20150203517A1, “Prodrugs of Compounds that Enhance Antifungal Activity and Compositions of Said Prodrugs” (priority 2014, published 2015)
Structures can show the parent of a compound that is named as a salt.

Key:
[1] = Conversion of prodrugs to compound 1 in human plasma; format: in vitro ADME; details: human plasma (Na-Heparin treated), 37° C.
Experimental: (§1) Step 1. Sample preparation. A quantity of blank human plasma (Na-Heparin treated) was incubated at 37° C. for 30 minutes. An amount of the compound sample was precisely weighed to correspond to around 5.00 mg of the hydroxamate of compound 1, taking into account the mass of the leaving group and the salt factor if applicable. The sample was placed in a 16×125 mm glass screw cap tube. The incubated blank human plasma was added so that the final concentration of hydroxamate 1 was 1.00 mg/mL. The sample was sonicated for 30 seconds, shaken for 30 seconds on a Vortex apparatus, and run through the HPLC procedure of Step 2 to get a time point zero value. The samples were stored in an incubator at 37° C., and the HPLC analysis of Step 2 was repeated in 30 minutes and 1 hour.
(§2) Step 2. Protein precipitation and HPLC analysis of plasma. A 50 μL aliquot of plasma was taken in a 1.5 mL Eppendorf vial, to which was added 200 μL of MeCN. The vial was capped and shaken on a Vortex apparatus for 30 seconds, then centrifuged at 13000 rpm (15700 rcf) for five minutes. When centrifuging was complete, 100 μL of the supernatant was placed in an injection vial containing an insert, to which was added 100 μL of 0.1% formic acid in water. The vial was capped and shaken on a Vortex apparatus for 30 seconds, and the contents were injected into the HPLC-UV instrument, and a comparison was made of the retention time, peak areas and level of degradation (if any) using the GDADI50 method.
Step 3. Reference sample preparation. An amount of the compound sample was precisely weighed to correspond to around 5.00 mg of the hydroxamate of compound 1, taking into account the mass of the leaving group and the salt factor if applicable. The sample was placed in a 16×125 mm glass screw cap tube. A quantity of MeCN/H2O 50/50 v/v was added so that the final concentration of hydroxamate 1 was 1.00 mg/mL. An injection vial was filled with 100 μL of this sample stock solution and 900 μL of a solution of 40/60 MeCN/0.1% formic acid in water. The vial was capped and the contents were injected into the HPLC-UV instrument, and a comparison was made of the retention time, peak areas and level of degradation (if any) using the GDADI50 method.

[2] = Saline solubility at 1.00 mg/mL and 0.50 mg/mL (with pH by indicator paper); format: physicochemical; details: for solubility at 1 h: saline or isotonic, thermodynamic from solid, 1.00 mg/mL as hydroxamate 1, shaken 1 hour, centrifuged, soluble = no precipitate formed, read-out: Soluble at 1.00 mg/mL of MGCD290 (Y/N); for pH at 1.00 mg/mL of MGCD290 in saline: final concentration of hydroxamate 1 1.00 mg/mL, pH indicator paper
Procedure, shortened: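 Prodrug was weighed to give 1.00 mg/mL hydroxamate equivalent in saline, vortexed 1 h and centrifuged, and diluted to 0.50 mg/mL if it precipitated. pH was checked by indicator paper. Stability in solution diluted 1:1 with saline was followed by HPLC-UV at 0, 6 and 24 h.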

[3] = Conversion of prodrugs to compound 1 in mouse plasma; format: in vitro ADME; details: mouse plasma (Na-Heparin treated); for Prodrug loss at 0.5 hr / Prodrug loss at 1 hr: 37° C.; for Prodrug solubility in plasma: equivalent to 1.00 mg/mL of compound 1, * = Plasma quickly became cloudy
Experimental: as §1, with “blank mouse” for “blank human”, “repeated at” for “repeated in”, “1 hour” for “1 hour.”
as §2

[4] = Saline solubility at 10.00 mg/mL, 5.00 mg/mL and 2.50 mg/mL (with pH by pH meter); format: physicochemical; details: saline or isotonic, thermodynamic from solid, concentration expressed as equivalent of Cpd 1, highest tested concentration soluble, read-out: Highest prodrug solubility in saline (equivalent of Cpd 1)
Experimental: The following procedures were used
Step 1. Sample preparation. An amount of the compound sample was precisely weighed to correspond to around 10 mg of the hydroxamate of compound 1, taking into account the mass of the leaving group and the salt factor if applicable. The sample was placed in a 16×125 mm glass screw cap tube. Saline was added so that the final concentration of hydroxamate 1 was 10.00 mg/mL. The tube was shaken for 1 hour on a Vortex apparatus then centrifuged at 3000 rpm (1800 rcf) for 5 minutes. If the compound example was soluble (no precipitate formed) then the pH was measured with a pH meter, and the procedure continued to step 2. If a precipitate formed then the sample was diluted with saline so that the final concentration of the hydroxamate of compound 1 became 5.00 mg/mL, and the shaking and centrifuging steps were repeated. If the compound example was soluble (no precipitate formed) then the pH was measured with a pH meter, and the procedure continued to step 2. If a precipitate formed then the sample was diluted with saline so that the final concentration of the hydroxamate of compound 1 became 2.50 mg/mL, and the shaking and centrifuging steps were repeated. If the compound example was soluble (no precipitate formed) then the pH was measured with a pH meter, and the procedure continued to step 2

SMILES | Prodrug loss at 0.5 hr [1] [%] | Prodrug loss at 1 hr [1] [%] | solubility at 1 h [2] [µg/mL] | Prodrug loss at 0.5 hr [3] [%] | Prodrug loss at 1 hr [3] [%] | Prodrug solubility in plasma [3] | solubility at 1 h [4] [µg/mL] | pH at 1.00 mg/mL of MGCD290 in saline [2]
COCCOCCOCC(=O)NCCCC[C@H](NC(=O)COCCOCCOC)C(=O)NCCC(=O)ONC(=O)Cc1ccc(CCCCc2ccccc2)cc1 [Compound 63, (S)—N,N′-(6-Oxo-6-(3-oxo-3-(2-(4-(4-phenylbutyl)phenyl)acetamidooxy)propylamino)hexane-1,5-diyl)bis(2-(2-(2-methoxyethoxyl)ethoxy)acetamide)] | 99.3 | 100.0 | > 1000 | 100 | 100 | Yes* | 1000 | 
COCCOCCOCC(=O)NCCCC[C@H](NC(=O)COCCOCCOC)C(=O)N(C)CCCC(=O)ONC(=O)Cc1ccc(CCCCc2ccccc2)cc1 [Compound 64, (S)—N,N′-(6-(Methyl(4-oxo-4-(2-(4-(4-phenylbutyl)phenyl)acetamidooxy)butyl)amino)-6-oxohexane-1,5-diyl)bis(2-(2-(2-methoxyethoxyl)ethoxy)acetamide)] | 78.7 | 100.0 | > 1000 | 100 | 100 | Yes | 10000 | 4.5-5
COCCOCC(=O)NCCCC[C@H](NC(=O)COCCOC)C(=O)NCCC(=O)ONC(=O)Cc1ccc(CCCCc2ccccc2)cc1 [Compound 68] | 98.6 | 99.4 | > 1000 | 100 | 100 | Yes* | 10000 | 4.5-5
COCCOCCOCC(=O)NCCCC[C@H](NC(=O)COCCOCCOC)C(=O)NCCCC(=O)ONC(=O)Cc1ccc(CCCCc2ccccc2)cc1 [Compound 99, (S)—N,N-(6-Oxo-6-(4-oxo-4-(2-(4-(4-phenylbutyl)phenyl)acetamidooxy)butylamino)hexane-1,5-diyl)bis(2-(2-(2-methoxyethoxyl)ethoxy)acetamide)] | 22.7 | 89.1 | > 1000 | 100 | 100 | Yes* | 2500 | 4.5-5
COCCOCC(=O)NCCCC[C@H](NC(=O)COCCOC)C(=O)NCCCC(=O)ONC(=O)Cc1ccc(CCCCc2ccccc2)cc1 [Compound 100] | 69.4 | 93.4 | > 1000 | 100 | 100 | Yes* | 1000 | 4.5-5
Cl.O=C(Cc1ccc(CCCCc2ccccc2)cc1)NOC(=O)CCC1CCNCC1 [Compound 110, 2-(4-(4-Phenylbutyl)phenyl)-N-(3-(piperidin-4-yl)propanoyloxy) acetamide hydrochloride] | 85.5 | 99.6 | > 1000 | 100 | 100 | Yes* | 10000 | 4.5-5
COCCOCCOCCOCCOCCOCC(=O)N1CCC(CCC(=O)ONC(=O)Cc2ccc(CCCCc3ccccc3)cc2)CC1 [Compound 111, N-(3-(1-2,5,8,11,14,17-Hexaoxanonadecanepiperidin-4-yl)propanoyloxy)-2-(4-(4-phenylbutyl)phenyl)acetamide] | 65.5 | 90.5 | > 1000 | 98 | 99 | Yes* | 10000 | 4.5-5
COCCOCCOCCOCCOCCOCC(=O)N1CCC(CCCC(=O)ONC(=O)Cc2ccc(CCCCc3ccccc3)cc2)CC1 [Compound 122] | 66.6 | 91.9 | > 1000 | 100 | 100 | Yes** | 10000 | 5.-5.5
NCCNCC(=O)NCCC(=O)ONC(=O)Cc1ccc(CCCCc2ccccc2)cc1 [Compound 135, 2-(2-aminoethylamino)-N-(3-oxo-3-(2-(4-(4-phenylbutyl)phenyl)acetamidooxy)propyl) acetamide dihydrochloride] | 98.7 | 99.8 | > 1000 | 100 | 100 | Yes* | 10000 | 4.5-5
